Target: T1, human PTH1 receptor (Homo sapiens, UniProt Q03431)
T1 sequence (Q03431 27-593): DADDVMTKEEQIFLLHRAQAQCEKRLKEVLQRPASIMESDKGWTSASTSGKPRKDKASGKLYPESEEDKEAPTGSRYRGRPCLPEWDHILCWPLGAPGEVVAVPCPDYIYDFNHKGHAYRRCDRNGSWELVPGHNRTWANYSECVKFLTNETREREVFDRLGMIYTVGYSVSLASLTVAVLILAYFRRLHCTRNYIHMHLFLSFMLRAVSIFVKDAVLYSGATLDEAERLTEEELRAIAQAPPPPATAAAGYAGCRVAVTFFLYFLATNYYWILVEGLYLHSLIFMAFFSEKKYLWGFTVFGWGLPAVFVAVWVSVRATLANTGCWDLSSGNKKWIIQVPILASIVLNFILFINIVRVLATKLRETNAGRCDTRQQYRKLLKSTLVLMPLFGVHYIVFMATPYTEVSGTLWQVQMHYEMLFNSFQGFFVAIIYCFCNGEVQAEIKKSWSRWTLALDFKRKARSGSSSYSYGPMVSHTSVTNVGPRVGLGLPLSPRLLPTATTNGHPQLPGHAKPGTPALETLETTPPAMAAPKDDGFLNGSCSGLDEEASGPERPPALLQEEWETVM
Test: In vitro cAMP signal activity in HKRK-B7 cells (LLC-PK1 cells overexpressing the human PTH1 receptor)
Format: cell-based
Conditions: HKRK-B7 cells, compound at 1×10^−3 M, cAMP produced as percentage of that produced by hPTH(1-34) at 100 nM

| Compound | cAMP production activity (%) | cAMP production activity (%) (0.1 µM) |
| --- | --- | --- |
| Cc1cc(C(=O)N2CCC[C@@H]2C(N)=O)ccc1CCS(=O)(=O)N1CCC2(CC1)N=C(c1cccc(C(F)(F)F)c1)NC2=O [Compound 369, (R)-1-(3-methyl-4-{2-[4-oxo-2-(3-trifluoromethyl-phenyl)-1,3,8-triaza-spiro[4.5]dec-1-ene-8-sulfonyl]-ethyl}-benzoyl)-pyrrolidine-2-carboxylic acid amide] | 43 |  |
| Cc1cc(OCCC(O)CO)ccc1/C=C/S(=O)(=O)N1CCC2(CC1)N=C(c1ccc3c(c1)OC(F)(F)O3)NC2=O (stereo not drawn) [Compound 1167, 2-(2,2-difluoro-benzo[1,3]dioxol-5-yl)-8-{(E)-2-[4-(3,4-dihydroxy-butoxy)-2-methyl-phenyl]-ethenesulfonyl}-1,3,8-triaza-spiro[4.5]dec-1-en-4-one] | 115 |  |
| Cc1cc(C(=O)N2CC[C@H](O)C2)ccc1CCS(=O)(=O)N1CCC2(CC1)N=C(c1cccc(C(F)(F)F)c1)NC2=O [Compound 370, 8-{2-[4-((S)-3-hydroxy-pyrrolidine-1-carbonyl)-2-methyl-phenyl]-ethanesulfonyl}-2-(3-trifluoromethyl-phenyl)-1,3,8-triaza-spiro[4.5]dec-1-en-4-one] | 66 |  |
| Cc1cc(N(C)C(N)=O)cc(Cl)c1/C=C/S(=O)(=O)N1CCC2(CC1)N=C(C1CCC(C)CC1)NC2=O (stereo not drawn) [Compound 695, 1-(3-Chloro-5-methyl-4-{(E)-2-[2-(4-methyl-cyclohexyl)-4-oxo-1,3,8-triaza-spiro[4.5]dec-1-ene-8-sulfonyl]-vinyl}-phenyl)-1-methyl-urea] | 78 |  |
| Cc1cc(C(=O)N2CCC(O)CC2)cc(C)c1/C=C/[S@TB4](=O)(=O)N1CCC2(CC1)N=C(c1ccc3c(c1)OC(F)(F)O3)NC2=O [Compound 1160, 2-(2,2-difluoro-benzo[1,3]dioxol-5-yl)-8-{(E)-2-[4-(4-hydroxy-piperidine-1-carbonyl)-2,6-dimethyl-phenyl]-ethenesulfonyl}-1,3,8-triaza-spiro[4.5]dec-1-en-4-one] | 84 |  |
| Cc1cc(N(C)C(N)=O)cc(C)c1CCS(=O)(=O)N1CCC2(CC1)N=C(C1C[C@H]3CC[C@@H](C1)C3)NC2=O (stereo partly drawn) [Compound 1054, 1-{4-[2-((1R,5S)-2-bicyclo[3.2.1]oct-3-yl-4-oxo-1,3,8-triaza-spiro[4.5]dec-1-ene-8-sulfonyl)-ethyl]-3,5-dimethyl-phenyl}-1-methyl-urea] | 80 |  |
| Cc1cc(OCCC(O)CO)ccc1/C=C/S(=O)(=O)N1CCC2(CC1)N=C(c1ccc(F)c(OC(F)(F)F)c1)NC2=O (stereo not drawn) [Compound 1166, 8-{(E)-2-[4-(3,4-Dihydroxy-butoxy)-2-methyl-phenyl]-ethenesulfonyl}-2-(4-fluoro-3-trifluoromethoxy-phenyl)-1,3,8-triaza-spiro[4.5]dec-1-en-4-one] | 144 |  |
| CC(=O)Nc1ccc(CCS(=O)(=O)N2CCC3(CC2)N=C([C@H]2CC[C@H](/C=C/C(F)F)CC2)NC3=O)c(C)c1 [Compound 916, N-[4-(2-{2-[4-((E)-3,3-difluoro-propenyl)-cyclohexyl]-4-oxo-1,3,8-triaza-spiro[4.5]dec-1-ene-8-sulfonyl}-ethyl)-3-methyl-phenyl]-acetamide] | 59 |  |
| CC1CCC(C2=NC3(CCN(S(=O)(=O)/C=C/c4cccc(C#N)c4)CC3)C(=O)N2)CC1 (stereo not drawn) [Compound 209, 3-{(E)-2-[2-(4-Methyl-cyclohexyl)-4-oxo-1,3,8-triaza-spiro[4.5]dec-1-ene-8-sulfonyl]-vinyl}-benzonitrile] | 24 |  |
| Cc1cc(C(=O)N(C)C)ccc1CCS(=O)(=O)N1CCC2(CC1)N=C(c1ccc(C(F)(F)F)cc1C(F)(F)F)NC2=O [Compound 100, 4-{2-[2-(2,4-bis-trifluoromethyl-phenyl)-4-oxo-1,3,8-triaza-spiro[4.5]dec-1-ene-8-sulfonyl]-ethyl}-3,N,N-trimethyl-benzamide] | 61 |  |
| Cc1cc(NCCN(C)C)ccc1/C=C/S(=O)(=O)N1CCC2(CC1)N=C(C1CCCCC1)NC2=O [Compound 497, 2-cyclohexyl-8-{(E)-2-[4-(2-dimethylamino-ethylamino)-2-methyl-phenyl]-ethenesulfonyl}-1,3,8-triaza-spiro[4.5]dec-1-en-4-one] | 38 |  |
| CC(=O)N(C)c1c(C)cc(CCS(=O)(=O)N2CCC3(CC2)N=C(C2CCC(C)CC2)NC3=O)cc1C (stereo not drawn) [Compound 783, N-(2,6-dimethyl-4-{2-[2-(4-methyl-cyclohexyl)-4-oxo-1,3,8-triaza-spiro[4.5]dec-1-ene-8-sulfonyl]-ethyl}-phenyl)-N-methyl-acetamide] | 50 |  |
| Cc1cc(C(=O)N(C)C)ccc1CCS(=O)(=O)N1CCC2(CC1)N=C(c1cccc(-c3cccnc3)c1)NC2=O [Compound 173, 3,N,N-trimethyl-4-{2-[4-oxo-2-(3-pyridin-3-yl-phenyl)-1,3,8-triaza-spiro[4.5]dec-1-ene-8-sulfonyl]-ethyl}-benzamide] | 71 |  |
| Cc1cc2ccc1CCS(=O)(=O)N1CCC3(CC1)N=C(NC3=O)c1cc(cc(C(F)(F)F)c1)OCCC(O)C(O)CCCN(C)C2=O (stereo not drawn) [Compound 1430] | 13 |  |
| Cc1cc(N(C)C(=O)CO)ccc1CCS(=O)(=O)N1CCC2(CC1)N=C(c1cccc(OC(F)(F)F)c1)NC2=O [Compound 300, 2-hydroxy-N-methyl-N-(3-methyl-4-{2-[4-oxo-2-(3-trifluoromethoxy-phenyl)-1,3,8-triaza-spiro[4.5]dec-1-ene-8-sulfonyl]-ethyl}-phenyl)-acetamide] | 73 |  |
| O=C1NC(C2CCCCC2)=NC12CCN(S(=O)(=O)/C=C/c1ccc3c(ccn3C[C@H](O)CO)c1)CC2 [Compound 702, 2-Cyclohexyl-8-{(E)-2-[1-((S)-2,3-dihydroxy-propyl)-1H-indol-5-yl]-ethenesulfonyl}-1,3,8-triaza-spiro[4.5]dec-1-en-4-one] | 84 |  |
| Cc1cc2ccc1CCS(=O)(=O)N1CCC3(CC1)N=C(NC3=O)c1cc(cc(C(F)(F)F)c1)OCCC=CCCCCN(C)C2=O [Compound 1410] |  | 51 |
| Cc1cc(N2C[C@H](O)CC2=O)ccc1CCS(=O)(=O)N1CCC2(CC1)N=C(c1cccc(C(F)(F)F)c1)NC2=O [Compound 297, 8-{2-[4-((R)-4-hydroxy-2-oxo-pyrrolidin-1-yl)-2-methyl-phenyl]-ethanesulfonyl}-2-(3-trifluoromethyl-phenyl)-1,3,8-triaza-spiro[4.5]dec-1-en-4-one] | 91 |  |
| Cc1cc(C(=O)N(C)C)ccc1CCS(=O)(=O)N1CCC2(CC1)N=C(c1ccccc1OC(F)(F)F)NC2=O [Compound 105, 3,N,N-trimethyl-4-{2-[4-oxo-2-(2-trifluoromethoxy-phenyl)-1,3,8-triaza-spiro[4.5]dec-1-ene-8-sulfonyl]-ethyl}-benzamide] | 78 |  |
| Cc1cc2ccc1CCS(=O)(=O)N1CCC3(CC1)N=C(NC3=O)c1cc(cc(C(F)(F)F)c1)OCCC/C=C\NC(=O)CN(C)C2=O [Compound 1423] | 17 |  |
| Cc1cc(N2CCOCC2=O)ccc1CCS(=O)(=O)N1CCC2(CC1)N=C(c1cccc(OC(F)(F)F)c1)NC2=O [Compound 793, 8-{2-[2-methyl-4-(3-oxo-morpholin-4-yl)-phenyl]-ethanesulfonyl}-2-(3-trifluoromethoxy-phenyl)-1,3,8-triaza-spiro[4.5]dec-1-en-4-one] | 124 |  |
| Cc1cc(N(C)C(N)=O)cc(C)c1CCS(=O)(=O)N1CCC2(CC1)N=C(CCCCCCCCCCCC(=O)O)NC2=O [Compound 1170, 12-(8-{2-[2,6-dimethyl-4-(1-methyl-ureido)-phenyl]-ethanesulfonyl}-4-oxo-1,3,8-triaza-spiro[4.5]dec-1-en-2-yl)-dodecanoic acid] | 24 |  |
| CN(C)C(=O)c1ccc(-c2ccc(S(=O)(=O)N3CCC4(CC3)N=C(c3cccc(C(F)(F)F)c3)NC4=O)s2)cc1 [Compound 329, N,N-Dimethyl-4-{5-[4-oxo-2-(3-trifluoromethyl-phenyl)-1,3,8-triaza-spiro[4.5]dec-1-ene-8-sulfonyl]-thiophen-2-yl}-benzamide] | 33 |  |
| Cc1cc(C(=O)N2CCC(O)(CF)CC2)cc(C)c1/C=C/S(=O)(=O)N1CCC2(CC1)N=C(C1CCC(CCC(F)(F)F)CC1)NC2=O (stereo not drawn) [Compound 990, 8-{(E)-2-[4-(4-fluoromethyl-4-hydroxy-piperidine-1-carbonyl)-2,6-dimethyl-phenyl]-ethenesulfonyl}-2-[4-(3,3,3-trifluoro-propyl)-cyclohexyl]-1,3,8-triaza-spiro[4.5]dec-1-en-4-one] | 87 |  |
